# Measured values as given in paper PMC11274128, “Modification and Synergistic Studies of a Novel Frog Antimicrobial Peptide against Pseudomonas aeruginosa Biofilms” (Antibiotics, 2024).
# Like-named read-outs stand apart in the source and are kept apart here. Bridge positions count the residues as written; N and C are the ends. Peptide text beside a SMILES is read from it.
# Experiments:
# S. aureus (ATCC 6538) = experiment: microbe, parasite or virus in culture; type: cell-based, Staphylococcus aureus; settings: planktonic S. aureus ATCC 6538; for MIC: 37 °C, nine repeats of three independent experiments, read-out: MIC; for MBC: lowest concentration killing 99.9% of inoculum, read-out: MBC
# Description: (§1) The minimum inhibitory concentration (MIC) is the minimum concentration of an antimicrobial agent that prevents the visible growth of a bacterium or bacteria. The MIC is an important piece of data for research on new antimicrobial agents and helps in the effective selection of antibiotics to improve the success of treatment. The minimum bactericidal concentration (MBC) is defined as the lowest antibiotic concentration that kills 99.9% of the inoculum. This study mainly contained eight different microorganisms, which were Staphylococcus aureus (ATCC 6538), methicillin-resistant Staphylococcus aureus (NCTC 12493), Enterococcus faecalis (NCTC 12697), Escherichia coli (ATCC 8739), Klebsiella pneumoniae (ATCC 43816), Pseudomonas aeruginosa (ATCC CRM 9027), Acinetobacter baumannii (BAA 747), and Candida albicans (ATCC 10231). The bacteria were incubated in the compatible medium at 37 °C overnight.
# MRSA (NCTC 12493) = experiment: microbe, parasite or virus in culture; type: cell-based, methicillin-resistant Staphylococcus aureus; settings: planktonic MRSA NCTC 12493; for MIC: 37 °C, nine repeats of three independent experiments; for MBC: lowest concentration killing 99.9% of inoculum
# Description: as §1
# E. faecalis (NCTC 12697) = experiment: microbe, parasite or virus in culture; type: cell-based, Enterococcus faecalis; settings: planktonic E. faecalis NCTC 12697; for MIC: 37 °C, nine repeats of three independent experiments; for MBC: lowest concentration killing 99.9% of inoculum
# Description: as §1
# E. coli (ATCC 8739) = experiment: microbe, parasite or virus in culture; type: cell-based, Escherichia coli; settings: planktonic E. coli ATCC 8739; for MIC: 37 °C, nine repeats of three independent experiments, read-out: MIC; for MBC: lowest concentration killing 99.9% of inoculum, read-out: MBC
# Description: as §1
# [1] = system: K. pneumoniae (ATCC 43816); experiment: microbe, parasite or virus in culture; type: cell-based, Klebsiella pneumoniae; settings: planktonic K. pneumoniae ATCC 43816; for MIC: 37 °C, nine repeats of three independent experiments; for MBC: lowest concentration killing 99.9% of inoculum
# Description: as §1
# [2] = system: P. aeruginosa (ATCC CRM 9027); experiment: microbe, parasite or virus in culture; type: cell-based, Pseudomonas aeruginosa; settings: planktonic P. aeruginosa ATCC CRM 9027; for MIC: 37 °C, nine repeats of three independent experiments; for MBC: lowest concentration killing 99.9% of inoculum
# Description: as §1
# A. baumannii (BAA 747) = experiment: microbe, parasite or virus in culture; type: cell-based, Acinetobacter baumannii; settings: planktonic A. baumannii BAA 747; for MIC: 37 °C, nine repeats of three independent experiments; for MBC: lowest concentration killing 99.9% of inoculum
# Description: as §1
# C. albicans (ATCC 10231) = type: cell-based, Candida albicans; settings: yeast C. albicans ATCC 10231; for MIC: 37 °C, nine repeats of three independent experiments; for MBC: lowest concentration killing 99.9% of inoculum
# Description: as §1
# G− Bacteria = experiment: Geometric mean of MICs and TI value; type: cell-based; settings: geometric mean of MICs against tested Gram-negative bacteria
# Protocol: (§2) The therapeutic potential of antimicrobial agents was valued based on their selectivity toward bacteria in reference to erythrocytes. The TI value was calculated from the results of antibacterial and haemolysis experiments of peptides using the following formula:TI value = HC10 / GMMICs.
# (§3) GM was the geometric mean of MICs against all tested bacteria.
# Yeast = experiment: Geometric mean of MICs and TI value; type: cell-based, Candida albicans; settings: C. albicans ATCC 10231
# Protocol: as §2, §3
# [3] = system: S. aureus ATCC 6538 biofilm; type: cell-based, Staphylococcus aureus; settings: for MBIC: lowest concentration inhibiting at least 90% of biofilm formation; for MBEC: minimum concentration eradicating at least 99% of the biofilm
# Description: (§4) The minimum bactericidal concentration (MBC) is defined as the lowest antibiotic concentration that kills 99.9% of the inoculum. The minimum biofilm inhibitory concentration (MBIC) is the lowest concentration that inhibits at least 90% of the formation of biofilm. The minimum biofilm eradication concentration (MBEC) is the minimum concentration that can eradicate at least 99% of the biofilm. In addition to the eight microorganisms described previously, this experiment was also applied to P. aeruginosa (ATCC 27853, ATCC BAA-2108, P. aeruginosa 01, P. aeruginosa 14).
# MRSA NCTC 12493 biofilm = type: cell-based, methicillin-resistant Staphylococcus aureus; settings: for MBIC: lowest concentration inhibiting at least 90% of biofilm formation; for MBEC: minimum concentration eradicating at least 99% of the biofilm
# Description: as §4
# [4] = system: E. faecalis NCTC 12697 biofilm; type: cell-based, Enterococcus faecalis; settings: for MBIC: lowest concentration inhibiting at least 90% of biofilm formation; for MBEC: minimum concentration eradicating at least 99% of the biofilm
# Description: as §4
# [5] = system: K. pneumoniae ATCC 43816 biofilm; type: cell-based, Klebsiella pneumoniae; settings: for MBIC: lowest concentration inhibiting at least 90% of biofilm formation; for MBEC: minimum concentration eradicating at least 99% of the biofilm
# Description: as §4
# P. aeruginosa 01 biofilm = type: cell-based, Pseudomonas aeruginosa; settings: for MBIC: lowest concentration inhibiting at least 90% of biofilm formation; for MBEC: minimum concentration eradicating at least 99% of the biofilm
# Description: as §4
# P. aeruginosa 14 biofilm = type: cell-based, Pseudomonas aeruginosa; settings: for MBIC: lowest concentration inhibiting at least 90% of biofilm formation; for MBEC: minimum concentration eradicating at least 99% of the biofilm
# Description: as §4
# [6] = system: P. aeruginosa ATCC 27853 biofilm; type: cell-based, Pseudomonas aeruginosa; settings: for MBIC: lowest concentration inhibiting at least 90% of biofilm formation; for MBEC: minimum concentration eradicating at least 99% of the biofilm
# Description: as §4
# [7] = system: P. aeruginosa ATCC BAA-2108 biofilm; type: cell-based, Pseudomonas aeruginosa; settings: for MBIC: lowest concentration inhibiting at least 90% of biofilm formation; for MBEC: minimum concentration eradicating at least 99% of the biofilm
# Description: as §4
# [8] = system: P. aeruginosa ATCC CRM 9027 biofilm; type: cell-based, Pseudomonas aeruginosa; settings: for MBIC: lowest concentration inhibiting at least 90% of biofilm formation; for MBEC: minimum concentration eradicating at least 99% of the biofilm
# Description: as §4
# [9] = system: A. baumannii BAA 747 biofilm; type: cell-based, Acinetobacter baumannii; settings: for MBIC: lowest concentration inhibiting at least 90% of biofilm formation; for MBEC: minimum concentration eradicating at least 99% of the biofilm
# Description: as §4
# [10] = system: E. faecalis NCTC 12697 biofilm; experiment: Peptide and antibiotic co-administration MBIC checkerboard assay; type: cell-based, Enterococcus faecalis; settings: 24 h, crystal violet, 595 nm
# Description: (§5) The plate was then carefully cleaned under running water.
# [11] = system: P. aeruginosa ATCC CRM 9027 biofilm; experiment: as above; type: cell-based, Pseudomonas aeruginosa; settings: 24 h, crystal violet, 595 nm
# Description: as §5
# horse red blood cells = horse red blood cells in PBS, 37 °C, 2 h, absorbance 570 nm; positive control 0.1% Triton
# Protocol: The pure peptide was dissolved in PBS and then two-fold diluted to obtain a series of concentrations: 512, 256, 128, 64, 32, 16, 8, 4, and 2 μM. A positive control (0.1% Triton) and blank control (PBS) were used. Two millilitres of fresh horse red blood cells were washed in PBS until the supernatant became colourless and clear, and the mixture was then thoroughly mixed. Each mixture contained 100 μL of peptide solution or controls and 100 μL of horse red blood cells, which were then incubated at 37 °C for 2 h and centrifuged at 930× g for 10 min. Subsequently, 100 μL of supernatant from each tube was transferred into a 96-well plate, and the plate reader measured the absorbance at a wavelength of 570 nm. The haemolysis rate was calculated using the following formula:Percentage Haemolysis= (ASample − ABlank)/(APositive − ABlank) × 100%
# [12] = peptide combined with gentamicin
compound,measurement,setting,value
CC[C@H](C)[C@H](NC(=O)[C@H](CCCCN)NC(=O)[C@H](CCCCN)NC(=O)CNC(=O)[C@H](C)NC(=O)CNC(=O)[C@H](CC(C)C)NC(=O)[C@@H](NC(=O)CNC(=O)[C@H](CO)NC(=O)[C@H](CC(C)C)NC(=O)[C@H](CC(C)C)NC(=O)CN)C(C)C)C(=O)N[C@H](C(=O)N[C@H]1CSSC[C@@H](C(=O)O)NC(=O)[C@H](CCCNC(=N)N)NC(=O)CNC(=O)[C@H](CO)NC(=O)[C@H](CC(C)C)NC(=O)CNC1=O)C(C)C [Nigrosin-6VL] (H-GLLSGVLGAGKKIVCGLSGRC-OH; disulfide 15-21),MIC,S. aureus (ATCC 6538),16 µM
same,MBC,S. aureus (ATCC 6538),32 µM
same,MIC,MRSA (NCTC 12493),> 128 µM
same,MBC,MRSA (NCTC 12493),> 128 µM
same,MIC,E. faecalis (NCTC 12697),> 128 µM
same,MBC,E. faecalis (NCTC 12697),> 128 µM
same,MIC,E. coli (ATCC 8739),64 µM
same,MBC,E. coli (ATCC 8739),128 µM
same,MIC,[1],128 µM
same,MBC,[1],128 µM
same,MIC,[2]; read-out: MIC,32 µM
same,MBC,[2]; read-out: MBC,128 µM
same,MIC,A. baumannii (BAA 747),> 128 µM
same,MBC,A. baumannii (BAA 747),> 128 µM
same,MIC,C. albicans (ATCC 10231),128 µM
same,MBC,C. albicans (ATCC 10231),> 128 µM
same,"GM (geometric mean of MICs), G− Bacteria",G− Bacteria,90.51 µM
same,"GM (geometric mean of MICs), Yeast",Yeast,128.00 µM
same,MBIC,[3],128/>128 µM
same,MBEC,[3],128/>128 µM
same,MBIC,MRSA NCTC 12493 biofilm,>128/>128 µM
same,MBEC,MRSA NCTC 12493 biofilm,>128/>128 µM
same,MBIC,[4],>128/>128 µM
same,MBEC,[4],>128/>128 µM
same,MBIC,[5],>128/>128 µM
same,MBEC,[5],>128/>128 µM
same,MBIC,P. aeruginosa 01 biofilm,>128/>128 µM
same,MBEC,P. aeruginosa 01 biofilm,>128/>128 µM
same,MBIC,P. aeruginosa 14 biofilm,>128/>128 µM
same,MBEC,P. aeruginosa 14 biofilm,>128/>128 µM
same,MBIC,[6],>128/>128 µM
same,MBEC,[6],>128/>128 µM
same,MBIC,[7],>128/>128 µM
same,MBEC,[7],>128/>128 µM
same,MBIC,[8],>128/>128 µM
same,MBEC,[8],>128/>128 µM
same,MBIC,[9],>128/>128 µM
same,MBEC,[9],>128/>128 µM
same,Biofilm FICI,[10]; peptide combined with cefepime,0.5
same,Biofilm FICI,[10]; [12],0.5
same,Biofilm FICI,[11]; peptide combined with cefepime,0.3125
same,Biofilm FICI,[11]; [12],0.5
same,HC10,horse red blood cells,>256 µM
CC[C@H](C)[C@H](NC(=O)[C@H](CCCCN)NC(=O)[C@H](CCCCN)NC(=O)CNC(=O)[C@H](C)NC(=O)[C@H](CCCNC(=N)N)NC(=O)[C@H](CC(C)C)NC(=O)[C@@H](NC(=O)[C@H](C)NC(=O)[C@H](CCCNC(=N)N)NC(=O)[C@H](CC(C)C)NC(=O)[C@H](CC(C)C)NC(=O)CN)C(C)C)C(=O)N[C@H](C(=O)N[C@H]1CSSC[C@@H](C(=O)O)NC(=O)[C@H](CCCNC(=N)N)NC(=O)CNC(=O)[C@H](CO)NC(=O)[C@H](CC(C)C)NC(=O)CNC1=O)C(C)C [Peptide 2170-2R] (H-GLLRAVLRAGKKIVCGLSGRC-OH; disulfide 15-21),MIC,S. aureus (ATCC 6538),4 µM
same,MBC,S. aureus (ATCC 6538),8 µM
same,MIC,MRSA (NCTC 12493),16 µM
same,MBC,MRSA (NCTC 12493),16 µM
same,MIC,E. faecalis (NCTC 12697),128 µM
same,MBC,E. faecalis (NCTC 12697),128 µM
same,MIC,E. coli (ATCC 8739),4 µM
same,MBC,E. coli (ATCC 8739),8 µM
same,MIC,[1],32 µM
same,MBC,[1],32 µM
same,MIC,[2],32 µM
same,MBC,[2],32 µM
same,MIC,A. baumannii (BAA 747); read-out: MIC,4 µM
same,MBC,A. baumannii (BAA 747); read-out: MBC,8 µM
same,MIC,C. albicans (ATCC 10231),64 µM
same,MBC,C. albicans (ATCC 10231),128 µM
same,"GM (geometric mean of MICs), G− Bacteria",G− Bacteria,11.31 µM
same,"GM (geometric mean of MICs), Yeast",Yeast,64.00 µM
same,MBIC,[3],4 µM
same,MBEC,[3],16 µM
same,MBIC,MRSA NCTC 12493 biofilm,4 µM
same,MBEC,MRSA NCTC 12493 biofilm,16 µM
same,MBIC,[4],32 µM
same,MBEC,[4],> 128 µM
same,MBIC,[5],32 µM
same,MBEC,[5],> 128 µM
same,MBIC,P. aeruginosa 01 biofilm,32 µM
same,MBEC,P. aeruginosa 01 biofilm,64 µM
same,MBIC,P. aeruginosa 14 biofilm,>128/>128 µM
same,MBEC,P. aeruginosa 14 biofilm,>128/>128 µM
same,MBIC,[6],8 µM
same,MBEC,[6],16 µM
same,MBIC,[7],>128/>128 µM
same,MBEC,[7],>128/>128 µM
same,MBIC,[8],>128/>128 µM
same,MBEC,[8],>128/>128 µM
same,MBIC,[9],8 µM
same,MBEC,[9],16 µM
same,Biofilm FICI,[10]; peptide combined with cefepime,0.375
same,Biofilm FICI,[11]; peptide combined with cefepime,0.5
same,Biofilm FICI,[11]; [12],1
same,HC10,horse red blood cells,>256 µM
